This experiment relates to breast ducts of live rabbits. Briefly: Ductal fluid collection after intraductal injection of mannitol solution in live rabbit. The format is in vivo, New Zealand rabbit. Conditions: for recovery: out-flow liquid checked about an hour later. As to the method: The objective of these experiments was to test the effects of the introduction of a solution containing mannitol on the secretion of fluid from the breast ducts of live rabbits. New Zealand rabbit #3242, female, from Kraelik Farm in CA weighing 4.1 kg was used. The rabbit was anesthetized by injection of 200 mg of ketamine and 40 mg of Zylazine. A second injection of 100 mg of ketamine and 20 mg of xylazine was made 2 hours later to maintain the rabbit in a deep plane of anesthesia. The thorax and abdomen of the rabbit was shaved to expose the breasts and nipples.
A single lumen blue color catheter (O.D. 0.23″ ID 0.017; O.D. at the tip 0.011″-0.012″) was inserted into a duct in each nipple. Three nipples were tested, and 2 ducts per nipple were accessed with a catheter. The nipples were identified A, B, and C.
A duct on nipple A was injected with 0.20 ml of a 12.5% solution of D-Mannitol in H2O (available from Sigma Chemicals, St. Louis, Mo. cat# M-9546 lot 6710402: C6H14O6 FW 182.2) with a single catheter. The control duct on nipple A was injected with 0.20 ml of phosphate buffered saline (PBS). A microfuge tube was attached to the end of each catheter to collect out flow liquid. Ten minutes later 0.2 ml of a 12.5% solution of D-Mannitol in H2O was injected into the first duct and the second duct was injected with 0.20 ml of phosphate buffered saline, for a total volume injected in each duct of 0.40 ml.
A duct on nipple B was injected with 0.5 ml of a 12.5% solution of D-Mannitol in H2O with a single catheter. The control duct on nipple B was injected with 0.50 ml of phosphate buffered saline (PBS). A microfuge tube was attached to the end of each catheter to collect out-flow liquid.
A duct on nipple C was injected with 0.7 ml of a 12.5% solution of D-Mannitol in H2O with a single catheter. The control duct on nipple C was injected with 0.70 ml of phosphate buffered saline (PBS). A microfuge tube was attached to the end of each catheter to collect out flow liquid.
About an hour after the fluid containing mannitol or PBS was injected into the ducts via the catheters, the microfuge tubes were checked for whether any fluid was returned.

For the compound `OC[C@@H](O)[C@@H](O)[C@H](O)[C@H](O)CO` [mannitol, D-Mannitol], for the setting “ducts injected with 12.5% mannitol solution, 0.4-0.7 ml, PBS control 1 out of 3”, the “ducts from which fluid can be collected” value is “three out of three”. The recovery runs as follows: (nipple A, duct A1, 0.4 ml total of 12.5% solution (2 x 0.2 ml, 10 min apart) injected intraductally) 310 ul liquid; (nipple B, duct B1, 0.5 ml of 12.5% solution injected intraductally) 490 ul liquid; (nipple C, duct C1, 0.7 ml of 12.5% solution injected intraductally) 280 ul liquid.

These data come from patent publication US7628765B2, “Increasing retrievable cells from a breast duct” (Cytyc Corporation, priority 2001, dated 2009).
